One molecule from PMC10353390, “Biological and Structural Analyses of New Potent Allosteric Inhibitors of HIV-1 Integrase” (Antimicrobial Agents and Chemotherapy, 2023) can be followed below.

Read-outs that look alike come from different tables or passages of the source.

For assay [1], the target named is T1, HIV-1 IN (Human immunodeficiency virus type 1 group M subtype B, UniProt P12497).
T1 construct: made in house
In words: HTRF IN multimerization assay. The format is biochemical. Conditions: mean ± SD. The text has this: A key property of INLAIs is the ability to promote HIV-1 IN homo-multimerization ([39][–][42]). […] The maximal signal (plateau) in our IN aggregation assay corresponds to the highest HTRF signal increase under saturating INLAI concentration, relative to baseline level. Thus, MUT916, MUT884, MUT871, and MUT872 increased HIV-1 IN aggregation 3.7 to 4.4-fold, while BDM-2, BI-224436, and S-I-82 did so 5 to 6-fold (Table 1).
On the technique in general: Time-resolved FRET reads energy transfer from a long-lived donor to a nearby acceptor.

Assay [2] has as its system HXB2 HIV-1 strain. In words: Multiple-round infection assay in MT4 cells, HXB2. The format is cell-based. The conditions noted are these: Human immunodeficiency virus 1, HXB2; multiple-round infection, MT4 cells; mean ± SD, n > 5; read-out: EC50 HXB2. An outline of the steps:
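MT4 cells at 10^6/mL were infected with HIV-1 at MOI 0.001 for 2 h in the presence of compound dilutions. Cell viability, measured by CellTiter-Glo luminescence, served as the read-out of protection in this multiple-round infection.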

For assay [3], the system named is lab-adapted and clinical HIV-1 isolates. Put plainly: Infection assays in primary T CD4+ lymphocytes. It is filed as cell-based. Conditions: Human immunodeficiency virus 1, Lymphocyte.
The test system of assay [4] is NL4-3 HIV-1 with INLAI-selected IN single point mutations. The format is cell-based.

As to `Cc1ccc(C2CC2)c(-c2ccc3c(c2)CCCO3)c1[C@H](OC(C)(C)C)C(=O)O` [BDM-2], the concentration at half-maximal activity (AC50) in assay [1] (concentration for 50% maximum activation of multimerization) was 20 ± 11 nM. In addition, the “IN multimerization Plateau” value in assay [1] (maximum multimerization reached versus baseline) is recorded as 560 ± 150%. In addition, the concentration giving a half-maximal response (EC50) in assay [2] worked out at 4.5 ± 1.2 nM; in assay [3] (read-out: EC50 33913N (B)), 4.2 ± 1.6 nM; in assay [3] (read-out: EC50 HXB2 (B)), 3.4 ± 1 nM; in assay [3] (read-out: EC50 KER2008 (A)), 8.1 ± 1.3 nM; in assay [3] (read-out: EC50 NL4-3 (B)) it was 8.3 ± 4.3 nM; in assay [3] (read-out: EC50 NP1525 (CRF01_AE)) it was 11 ± 5 nM. In addition, the EC50 in assay [3] (read-out: EC50 NP1538 (B)) was 13 ± 6 nM. In assay [4], the “EC50 fold change compared to wild type NL4-3, A128T” value is 4. Besides, in assay [4], the “EC50 fold change compared to wild type NL4-3, H171Q” value stood at 3. Also, the “EC50 fold change compared to wild type NL4-3, N222K” value in assay [4] came to 2. Besides, the “EC50 fold change compared to wild type NL4-3, T174I” value in assay [4] worked out at 253. Also, the “EC50 fold change compared to wild type NL4-3, Y99H” value in assay [4] was found to be 4.

In general, AC50 refers to the midpoint of the concentration-response curve, whichever way the signal moves. Low values mean greater potency, high ones weaker potency. A word on the EC50: it is the midpoint of the concentration-response curve.
